Assay results: patent US5624687A, “Quick-dissolution solid preparation” (Yamanouchi Pharmaceutical Co., Ltd., priority 1991, dated 1997)
Structures can show the parent of a compound that is named as a salt.

Assay: Solubility determination of bulk substance in test solutions of various pH (37° C., 1 hour)
Format: physicochemical
Details: for solubility at 1 h: test solution
Procedure: Emonapride hydrochloride (0.05-5 g) was added to 10 ml portions of test solutions of various pH and each mixture was shaken at 37° C. for 1 hour, at the end of which it was filtered through Nucripore Membrane (pore size 0.6 μm). A definite portion of the filtrate was taken out and diluted with acetate buffer (pH 3.0) for use as a sample solution.
Separately, about 0.1 g of emonapride hydrochloride was accurately weighed out and dissolved in methanol to make exactly 100 ml. One milliliter portion of this solution was accurately taken out and diluted with acetate buffer (pH 3.0) to make exactly 100 ml for use as the standard solution. For each of the test solution and the standard solution, the absorbance at 313 nm was measured by absorption spectrometry and the solubility was determined.
In the preparation of the test solutions, JP Test Solution 1 was used for pH 1.2, acetate buffer (S.phi.rensen buffer) for pH 2.0-5.0, phosphate buffer (Clark-Lubs buffer) for pH 6.0-7.6 and JP Test Solution 2 for pH 6.8.

SMILES | solubility (statement in the description) (conditions over pH 4) | solubility change with pH (as the pH exceeded 4, 37° C.) | pH dependence of dissolution (bulc substance, from solubility at various pH) | solubility at 1 h (pH≤4, 37° C.) | solubility at 1 h (pH≥6.8, 37° C.)
CNc1cc(OC)c(C(=O)NC2CCN(Cc3ccccc3)C2C)cc1Cl (centres unmarked) [Emonapride, N-(1-Benzyl-2-methylpyrrolidin-3-yl)-5-chloro-2-methoxy-4-methylaminobenzamide] | drastically insoluble | – | – | – | –
CNc1cc(OC)c(C(=O)NC2CCN(Cc3ccccc3)C2C)cc1Cl (centres unmarked) [emonapride hydrochloride] | – | decreased sharply | pH-dependent | ≥ 5000 µg/mL | ≤ 10 µg/mL
